According to patent US8148371B2, “Adenine compound and use thereof” (Dainippon Sumitomo Pharma Co., Ltd., priority 2002, dated 2012):
Read-outs that look alike come from different tables or passages of the source. Marks after values point to notes of the source that are not given here.

Experiments:
cells of mouse spleen = test: cells; assay type: cell-based, C3H/HeJ mouse; conditions: for minimal effective concentration: Mus musculus, 24 h, read-out: Minimum effective concentration (interferon inducing activity)
cells of rat spleen = test: cells; assay type: cell-based, SD rat; conditions: 24 h, read-out: Minimum effective concentration (interferon inducing activity)
plasma esterase = conditions: rat plasma, 37° C., 15 minutes
Protocol: The compound of the present invention is added to the serum solution, and the mixture is incubated at 37±0.5° C. for 5 minutes to 2 hours. By quantitatively analyzing at the definite interval the amount of the compound of the present invention remaining in the serum solution with HPLC (high performance liquid chromatography), etc., the constant of quenching velocity calculated and the half life is calculated.
The serum herein means the supernatant fraction obtained by excluding hemocytes and blood coagulation factor from blood by centrifugation, etc. The serum diluted with buffer, etc. can be used.
The metabolic stability of the test compound was presented by the residual amount (%) per the concentration of pre-metabolization.

[1] = Metabolic stability on liver S9 of rat; conditions: 37° C.
[2] = test system: type 2 herpes virus (HSV-2); test: Anti HSV activity in mouse infected with HSV-2 in its vagina; assay type: in vivo, BALB/c female mouse; conditions: 9 days after virus-infection
Protocol: Compound A was spread to a vagina of a female mouse (BALB/c) to which previously Depo-Provera was administered, and on next day, HSV-2 was infected to the vagina. Nine days later, the rate of survival or death of mice was observed and compared.
On the back of a BALB/c female mouse (6 weeks old: Nippon SLC) 3 mg of Depo-Provera/mouse (Registered Trade Mark) was dermally administered and the mice were fed for 6 days. By doing this the sexual cycle was tuned and the sensitivity between mice to herpes virus was balanced. The slime of mouse vagina was removed by a cotton swab for baby, and the ointment (20 mg) containing 0.5% of compound of Example 20 or the ointment (10 mg) containing 5% of compound of Example 20 was spread to the vagina (corresponding 0.1 mg and 0.5 mg per mouse of the compound of Example). As a control, the placebo ointment not containing the compound was spread as well. As the ointment, the base consisting of 80% Vaseline and 20% liquid paraffin were used. On the next day, the slime of mouse vagina was removed by a cotton swab for baby and then, 2×10^4 pfu type 2 herpes virus (HSV-2)(10 μl/mouse) was administered to the vagina by pipette. After infection the death or survival of the mice was observed.

[3] = rat liver S9, test compound 1 μM
[4] = rat liver S9, test compound 10 μM (*)

| SMILES | minimal effective concentration (cells of mouse spleen) [µM] | minimal effective concentration (cells of rat spleen) [µM] | Residual rate (plasma esterase; test compound 10 μM) [%] | Residual rate [1, 3] [%] | also measured |
| --- | --- | --- | --- | --- | --- |
| CCCCOc1nc(N)c2nc(O)n(Cc3cccc(C(=O)O)c3)c2n1 [Comparative example 1, 2-Butoxy-8-hydroxy-9-(3-carboxybenzyl)adenine, reference compound] | 0.003 | 0.01 |  |  |  |
| CCCCOc1nc(N)c2nc(O)n(Cc3ccc(C(=O)O)o3)c2n1 [Comparative example 3, 2-Butoxy-8-hydroxy-9-(5-carboxyfurfuryl)adenine, reference compound] | 0.1 | 0.01 |  |  |  |
| CCCCOc1nc(N)c2nc(O)n(Cc3cccc(CC(=O)O)c3)c2n1 [Comparative example 5, 2-Butoxy-8-hydroxy-9-(3-carboxymethylbenzyl)adenine, reference compound] | 0.1 | 0.01 |  |  |  |
| CCCCOc1nc(N)c2nc(O)n(Cc3ccc(CC(=O)O)cc3)c2n1 [Comparative example 6, 2-Butoxy-8-hydroxy-9-(4-carboxymethylbenzyl)adenine, reference compound] | 0.03 | 0.01 |  |  |  |
| Nc1nc(CC(=O)O)nc2c1nc(O)n2Cc1ccccc1 [Comparative example 8, 9-Benzyl-2-carboxymethyl-8-hydroxyadenine, reference compound] | 10 | 3 |  |  |  |
| Cc1ccc(Cn2c(O)nc3c(N)nc(OCCO)nc32)cn1 [Comparative example 11, 8-Hydroxy-2-(2-hydroxyethoxy)-9-{(6-methyl-3-pyridyl)methyl}adenine, reference compound] | 0.1 |  |  |  |  |
| Nc1nc(SCC(=O)O)nc2c1nc(O)n2Cc1ccccc1 [Comparative example 12, 9-Benzyl-8-hydroxy-2-(calboxylmethyl)thioadenine, reference compound] | 10 | 0.3 |  |  |  |
| Nc1nc(SCCC(=O)O)nc2c1nc(O)n2Cc1ccccc1 [Comparative example 13, 9-Benzyl-8-hydroxy-2-(2-calboxylethyl)thioadenine, reference compound] | 10 | 0.3 |  |  |  |
| CCCCOc1nc(N)c2[nH]c(=O)n(Cc3cccc(C(=O)OC)c3)c2n1 [Example 1, 2-Butoxy-8-hydroxy-9-(3-methoxycarbonylbenzyl)adenine] | < 0.001 | 0.0003 | 32 | 7 |  |
| CCCCOc1nc(N)c2nc(O)n(Cc3cccc(C(=O)OCCO)c3)c2n1 [Example 6, 2-Butoxy-8-hydroxy-9-{3-(2-hydroxyethoxycarbonyl)benzyl}adenine] | < 0.001 |  | 14 |  |  |
| CCCCOc1nc(N)c2nc(O)n(Cc3cccc(C(=O)OCCN(C)C)c3)c2n1 [Example 7, 2-Butoxy-8-hydroxy-9-{3-(2-dimethylaminoethoxycarbonyl)benzyl}adenine] | < 0.001 |  | 1 |  |  |
| CCCCOc1nc(N)c2nc(O)n(Cc3ccc(C(=O)OC(C)C)o3)c2n1 [Example 16, 2-Butoxy-8-hydroxy-9-(5-isopropoxycarbonylfurfuryl)adenine] | 0.003 |  | 0 | 0 |  |
| CCCCOc1nc(N)c2nc(O)n(Cc3cccc(CC(=O)OC)c3)c2n1 [Example 19, 2-Butoxy-8-hydroxy-9-(3-methoxycarbonylmethylbenzyl)adenine] | < 0.001 | 0.0003 |  |  |  |
| CCCCOc1nc(N)c2nc(O)n(Cc3ccc(CC(=O)OC)cc3)c2n1 [Example 20, 2-Butoxy-8-hydroxy-9-(4-methoxycarbonylmethylbenzyl)adenine] | 0.003 | 0.0001 | 0 | 0 | survived rate ([2]; 5% ointment (0.5 mg per mouse) spread to vagina): 100%; survived rate comparing with a control group ([2]; ointments containing 0.5% and 5%): clearly higher survived rate |
| CCCCOc1nc(N)c2nc(O)n(Cc3ccc(CC(=O)OC(C)C)cc3)c2n1 [Example 21, 2-Butoxy-8-hydroxy-9-(4-isopropoxycarbonylmethylbenzyl)adenine] | 0.003 | 0.001 |  | 26 | Residual rate (plasma esterase; test compound 1 μM (*)): 0* % |
| CCCCOc1nc(N)c2nc(O)n(Cc3ccc(N4CCC(C(=O)OCC)CC4)nc3)c2n1 [Example 24, 2-Butoxy-8-hydroxy-9-{6-(4-ethoxycarbonyl-1-piperidyl)-3-pyridylmethyl}adenine] | < 0.001 | 0.0003 | 7 |  |  |

| SMILES | minimal effective concentration (cells of mouse spleen) [µM] | minimal effective concentration (cells of rat spleen) [µM] | Residual rate (plasma esterase; test compound 10 μM) [%] | Residual rate [1, 3] [%] | also measured |
| --- | --- | --- | --- | --- | --- |
| CCCCOc1nc(N)c2nc(O)n(Cc3ccc(N4CCCC(C(=O)OCC)C4)nc3)c2n1 (centres unmarked) [Example 25, 2-Butoxy-8-hydroxy-9-{6-(3-ethoxycarbonyl-1-piperidyl)-3-pyridylmethyl}adenine] | 0.003 |  | 16 |  |  |
| COC(=O)Cc1nc(N)c2nc(O)n(Cc3ccccc3)c2n1 [Example 29, 9-Benzyl-8-hydroxy-2-methoxycarbonylmethyladenine] | 0.01 | 0.01 | 0 |  |  |
| CCOC(=O)Cc1nc(N)c2nc(O)n(Cc3ccccc3)c2n1 [Example 30, 9-Benzyl-2-ethoxycarbonylmethyl-8-hydroxyadenine] | 0.01 | 0.01 | 0 | 4 |  |
| COC(=O)CNc1nc(N)c2nc(O)n(Cc3ccc(C)nc3)c2n1 [Example 32, 8-Hydroxy-2-methoxycarbonylmethylamino-9-{(6-methyl-3-pyridyl)methyl}adenine] | 0.01 |  | 0 |  |  |
| CC(=O)OCCNc1nc(N)c2nc(O)n(Cc3ccc(C)nc3)c2n1 [Example 33, 2-(2-Acetoxyethylamino)-8-hydroxy-9-{(6-methyl-3-pyridyl)methyl}adenine] | 0.1 |  |  |  | Residual rate [1, 4]: 2* % |
| COC(=O)OCCNc1nc(N)c2nc(O)n(Cc3ccc(C)nc3)c2n1 [Example 34, 8-Hydroxy-2-(2-methoxycarbonyloxyethylamino)-9-{(6-methyl-3-pyridyl)methyl}adenine] | 0.1 |  | 11 |  | Residual rate [1, 4]: 1* % |
| COC(=O)OCCOc1nc(N)c2nc(O)n(Cc3ccc(C)nc3)c2n1 [Example 38, 2-{2-(Methoxycarbonyloxy)ethoxy}-8-hydroxy-9-{(6-methyl-3-pyridyl)methyl}adenine] | 0.01 |  | 2 |  |  |
| COC(=O)CSc1nc(N)c2nc(O)n(Cc3ccccc3)c2n1 [Example 40, 9-Benzyl-8-hydroxy-2-(methoxycarbonylmethyl)thioadenine] | 0.01 | 0.01 | 0 |  |  |
| Nc1nc(SCC(=O)OCC(F)(F)F)nc2c1nc(O)n2Cc1ccccc1 [Example 48, 9-Benzyl-2-(2,2,2-trifluoroethoxycarbonylmetyl)thio-8-hydroxyadenine] |  |  | 0 | 0 | Minimum effective concentration (interferon inducing activity) (cells of mouse spleen): 0.3 µM |
| CCNC(=O)CSc1nc(N)c2nc(O)n(Cc3ccccc3)c2n1 [Example 50, 9-Benzyl-2-(ethylcarbamoylmethyl)thio-8-hydroxyadenine] | 0.1 |  |  | 7 |  |
| Nc1nc(SCC(=O)N2CCCCC2)nc2c1nc(O)n2Cc1ccccc1 [Example 51, 9-Benzyl-8-hydroxy-2-(1-piperidinocarbonylmethyl)thioadenine] | 0.1 |  |  | 0 |  |
| CCOC(=O)C(C)Sc1nc(N)c2nc(O)n(Cc3ccccc3)c2n1 (centres unmarked) [Example 53, 9-Benzyl-8-hydroxy-2-(1-ethoxycarbonylethyl)thioadenine] | 0.1 |  | 0 | 2 |  |
| COC(=O)CCSc1nc(N)c2nc(O)n(Cc3ccccc3)c2n1 [Example 54, 9-Benzyl-8-hydroxy-2-(2-methoxycarbonylethyl)thioadenine] | 0.1 | 0.01 | 0 |  |  |
| CCOC(=O)CC(=O)CSc1nc(N)c2nc(O)n(Cc3ccccc3)c2n1 [Example 58, 9-Benzyl-2-(ethoxycarbonylmethylcarbonylmethyl)thio-8-hydroxyadenine] | 0.1 |  | 0 |  |  |
| Nc1nc(SC2CCOC2=O)nc2c1nc(O)n2Cc1ccccc1 (centres unmarked) [Example 59, 9-Benzyl-2-(2-butyrolactino)thio-8-hydroxyadenine] |  |  | 0 | 7 | Minimum effective concentration (interferon inducing activity) (cells of mouse spleen): 0.1 µM |
